What was measured:
DENV-2 = DENV-2 intracellular dsRNA (Cellomics) in A549 cells; format: cell-based, dengue virus
Protocol: Error bars represent SD among 3 biological replicates. Cultured A549 cells were treated with the indicated concentrations of CA (1=Mock, 2=0 M, 3=1 μM, 4=5 M, 5=10 M, 6=20 µM) or PF-429242 (7=15 M) for 1 h before being washed with PBS and infected with DENV-2, DENV-3, or DENV-4 at MOI 1.0 for 48 h. Cells were labeled for viral dsRNA with […] then imaged and quantified using the Cellomics ArrayScan™ VTI High Content Screening system.
Viruses. ZIKV: ZIKV strain PRVABC59 (Puerto Rico/2015) (ATCC #VR-1843) was used in these studies, specifically three separate stocks generated in Vero E6 cells with titres of 1.35×10^8 pfu/mL, 1.0×10^7 pfu/mL, and 2.9×10^6 pfu/mL respectively. DENV strains: DENV-2 strain NGC, DENV-3 strain H-87, and DENV-4 strain H-241 were kindly provided by National Microbiology Laboratory, Winnipeg, MB, Canada.
A549 cells were seeded onto Corning tissue culture treated 96 well plates and incubated at 37 degrees Celsius and 5% CO2 for 24 h. CA was diluted in MEM complete media to concentrations of 1 μM, 5 μM, 10 μM, 20 μM, including a 0 μM condition. Diluted CA was added to each well and cells were incubated at 37 degrees Celsius and 5% CO2 for 1 h. After 1 h, cells were washed once with PBS to remove CA and were then infected with DENV-2, -3 or -4 at an MOI of 1. […] Labeled 96 well plates were imaged and quantified using the Cellomics ArrayScan VTI. […]

ZIKV replicon = ZIKV replicon luminescence assay in Huh-7.5 replicon-containing cells; format: cell-based, Zika virus; details: Huh-7.5 ZIKV replicon cells, 48 h
Protocol: Error bars represent SD among 3 biological replicates.
Cultured Huh-7.5.1 cells and Huh-7.5 ZIKV replicon-containing cells (Xie 2016) were treated with various concentrations of CA or putative ZIKV replication inhibitor NITD-008 (Deng 2016) for 48 h. Cells were then washed with PBS and ViviRen™ Live Cell Substrate (Promega) was added to a final concentration of 30 μM. Following incubation for 2 min at room temperature, luminescence was measured. Curve fitting was performed in Igor Pro (WaveMetrics) using a sigmoidal fit algorithm (FIG. 5).

ZIKV [1] = experiment: ZIKV infectivity by semisolid overlay plaque assay after pre-treatment of A549 and U87 MG cells; format: cell-based, Zika virus; details: for reduction in ZIKV titer: CA 250 nM 1 h pre-treatment, MOI 1.0, 3 d
[2] = MTS cytotoxicity assay in A549 cells; format: cell-based, human; details: human, A549 cells (human lung carcinoma)
Protocol: An MTS assay was performed to determine the cytotoxicity concentration 50% (CC50) of cladoniamide A (CA) in human A549 cells, a cell line from human lung carcinoma. Various concentrations of CA were added to cultured A549 cells and incubated (37° C., 5% CO2) for 48 h. Cell viability was then measured by an MTS assay kit (CellTiter 96™ Aqueous One Solution cell proliferation assay, Promega) according to the manufacturer's instructions. Curve fitting was performed in Igor Pro (WaveMetrics) using a hyperbolic fit algorithm (FIG. 1). The CC50 of CA in A549 cells was determined to be 54±5 μM. An MTS assay was also performed to determine the CC50 of CA in human U87 MG cells, a cell line from human brain. Various concentrations of CA were added to cultured U87 MG cells and incubated (37° C., 5% CO2) for 48 h. Cell viability was then measured by an MTS assay kit (CellTiter 96 Aqueous One Solution cell proliferation assay, Promega) according to the manufacturer's instructions. Curve fitting was performed in Igor Pro (WaveMetrics) using a hyperbolic fit algorithm (FIG. 2).

ZIKV [3] = experiment: NS1 and dsRNA in ZIKV-infected brain organoids; format: cell-based, Zika virus; details: 10 μM, 69 hours, MOI 1
Protocol: (§1) FIG. 17 is a schematic showing the general method 20 used in Example 6. Referring to FIG. 17, following growth of the brain organoids in STEMdiff™ media 22 (4 organoids/well), the media was aspirated 24. Then, 500 μL ZIKV at the desired MOI in fresh media was added 26 and the brain organoids incubated at 37° C. for 3 hours with gentle shaking 28. The brain organoids were then washed with 2×1 mL PBS 30, and fresh media and CA or cladoniamide C (CC) added to the desired concentration 32 prior to incubation for the desired time at 37° C. 34. The supernatant was collected and frozen at −86° C. 36 prior to analysis and the brain organoids transferred to an Eppendorf with paraformaldehyde for electron microscopy 38.
(§2) FIG. 18 is a plot showing the anti-ZIKV activity of cladoniamide A (incubation with 1 μM CA for 72 hours; 2 biological replicates, each with 4 organoids/well) using four brain organoid systems. There was a greater than 4-log reduction in extracellular ZIKV titer when treated with CA. […] FIGS. 20 and 21 show plots showing the anti-ZIKV activity of CA and CC (incubation with 10 μM CA or CC for 69 hours, MOI 1; 4 technical replicates as there were 4 organoids/[…]).

V-ATPase = molecular target: T1, V-ATPase (Homo sapiens, UniProt P27449); experiment: Acridine orange vital staining of intracellular organelles of A549 cells (V-ATPase inhibition); format: cell-based; details: CA 250 nM, 6 h
T1 construct: endogenous in cells; host or cells: A549 cells (ATCC #CCL-185, or acquired from Synthego)
T1 sequence (P27449 whole entry, looked up): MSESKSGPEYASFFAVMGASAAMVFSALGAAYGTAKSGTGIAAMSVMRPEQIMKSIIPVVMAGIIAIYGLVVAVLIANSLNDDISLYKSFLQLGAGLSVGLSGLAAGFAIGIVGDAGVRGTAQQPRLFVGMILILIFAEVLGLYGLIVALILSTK
Protocol: Cultured A549 cells were treated with 1 μM CD, or 250 nM CA or the V-ATPase specific inhibitor bafilomycin A1 (100 nm) for 6 h. After removing the culture medium and washing the cells with Hanks' balanced salt solution (HBSS), a 1:4000 dilution of acridine orange (2% solution, Polysciences Inc.) in HBSS was added to cells and incubated for 10 min. Cells were then washed again with HBSS and analyzed by fluorescence microscopy. In color images, a red color corresponds to the protonated version of the molecule, which permeates acidic organelles and becomes sequestered following protonation. One representative of 3 biological replicates is shown.

ZIKV [4] = experiment: Extracellular ZIKV titer in infected brain organoids; format: cell-based, Zika virus; details: 1 μM CA, 72 hours
Protocol: FIG. 18 is a plot showing extracellular ZIKV titer for four brain organoid systems after treatment with 1 μM CA for 72 hours in comparison to untreated controls.
as §1, §2

brain organoids = experiment: CellTiter Glo 3D cell viability assay in brain organoids; format: cell-based; details: 1 μM
Protocol: FIG. 19 is a plot showing toxicity results for brain organoids treated with 1 μM CA.
as §2

In the case of `COc1c2n(c3ccccc13)[C@]1(O)C(=O)N(C)C(=O)[C@]1(O)c1c-2[nH]c2ccc(Cl)cc12` [CA, (11S,15R)-7-chloro-11,15-dihydroxy-23-methoxy-13-methyl-3,13,16-triazahexacyclo[14.7.0.0^2,10.0^4,9.0^11,15.0^17,22]tricosa-1(23),2(10),4(9),5,7,17,19,21-octaene-12,14-dione], the “activity against Dengue virus 2 in vitro” value (DENV-2; 1-20 μM, FIG. 8 upper plots) is reported as “good activity”, the IC50 (DENV-2; Dengue virus, DENV2, DENV-2, intracellular dsRNA (Cellomics)) is reported as 2.3 µM and the ZIKV replication inhibition (ZIKV replicon) is reported as “not a ZIKV replication inhibitor”. For the same compound, the “reduction in ZIKV titer” value (ZIKV [1]; A549 cells) was “greater than 4 log”, the “reduction in ZIKV titer” value (ZIKV [1]; U87 MG cells) was “greater than 4 log” and the “inhibition of production of infectious ZIKV virions” value (ZIKV [1]; at 50 nm (so in the source), FIG. 3) was “dramatically inhibited”. The CC50 at 48 h [2] was 54 ± 5 µM, the “anti-ZIKV activity in brain organoids (NS1, dsRNA)” value (ZIKV [3]) was “showed anti-ZIKV activity” and the “vital staining with acridine orange of intracellular organelles” value (V-ATPase) was “inhibited vital staining”. For the same compound, the “reduction in extracellular ZIKV titer” value (ZIKV [4]) was “greater than 4 log” and the “toxicity to brain organoids” value (brain organoids) was “not toxic”.
